# Data as given in US11434221B2, “Pyrazine-4-carbamate or -urea derivatives as herbicides” (Syngenta Participations AG, priority 2017, dated 2022).
# Tests used:
# Format in all cases: in vivo
# Parameters in all cases: key: 5=total damage to plant; 0=no damage to plant
# [1] = test system: Avena fatua (AVEFA); test: Post-emergence herbicidal activity, glasshouse pot test; details: Rate 1000 g/ha; sprayed after 8 days cultivation; evaluated after 13 days
# Protocol: (§1) Seeds of a variety of test species were sown in standard soil in pots: Triticum aestivium (TRZAW), Avena fatua (AVEFA), Alopecurus myosuroides (ALOMY), Echinochloa crus-galli (ECHCG), Lolium perenne (LOLPE), and Setaria faberi (SETFA). After 8 days cultivation (post-emergence) under controlled conditions in a glasshouse (at 24/16° C., day/night; 14 hours light; 65% humidity), the plants were sprayed with an aqueous spray solution derived from the formulation of the technical active ingredient in acetone/water (50:50) solution containing 0.5% Tween 20 (polyoxyethelyene sorbitan monolaurate, CAS RN 9005-64-5). The test plants were then grown in a glasshouse under controlled conditions (at 24/16° C., day/night; 14 hours light; 65% humidity) and watered twice daily. After 13 days, the test was evaluated (5=total damage to plant; 0=no damage to plant).
# [2] = test system: Setaria faberi (SETFA); test: as above; details: Rate 1000 g/ha; sprayed after 8 days cultivation; evaluated after 13 days
# Protocol: as §1
# [3] = test system: Triticum aestivium (TRZAW); test: as above; details: Rate 1000 g/ha; sprayed after 8 days cultivation; evaluated after 13 days
# Protocol: as §1
# [4] = test system: Echinochloa crus-galli (ECHCG); test: as above; details: Rate 1000 g/ha; sprayed after 8 days cultivation; evaluated after 13 days
# Protocol: as §1
# [5] = test system: Lolium perenne (LOLPE); test: as above; details: Rate 1000 g/ha; sprayed after 8 days cultivation; evaluated after 13 days
# Protocol: as §1
# [6] = test system: Alopecurus myosuroides (ALOMY); test: as above; details: Rate 1000 g/ha; sprayed after 8 days cultivation; evaluated after 13 days
# Protocol: as §1
# [7] = test system: Avena fatua (AVEFA); test: Pre-emergence herbicidal activity, glasshouse pot test; details: Rate 1000 g/ha; sprayed one day after sowing; evaluated after 13 days
# Protocol: as §1, with “After” for “After 8 days”, “for one day (pre-emergence)” for “(post-emergence)”
# [8] = test system: Setaria faberi (SETFA); test: as above; details: Rate 1000 g/ha; sprayed one day after sowing; evaluated after 13 days
# Protocol: as §1, with “After” for “After 8 days”, “for one day (pre-emergence)” for “(post-emergence)”
# [9] = test system: Triticum aestivium (TRZAW); test: as above; details: Rate 1000 g/ha; sprayed one day after sowing; evaluated after 13 days
# Protocol: as §1, with “After” for “After 8 days”, “for one day (pre-emergence)” for “(post-emergence)”
# [10] = test system: Echinochloa crus-galli (ECHCG); test: as above; details: Rate 1000 g/ha; sprayed one day after sowing; evaluated after 13 days
# Protocol: as §1, with “After” for “After 8 days”, “for one day (pre-emergence)” for “(post-emergence)”
# [11] = test system: Lolium perenne (LOLPE); test: as above; details: Rate 1000 g/ha; sprayed one day after sowing; evaluated after 13 days
# Protocol: as §1, with “After” for “After 8 days”, “for one day (pre-emergence)” for “(post-emergence)”
# [12] = test system: Alopecurus myosuroides (ALOMY); test: as above; details: Rate 1000 g/ha; sprayed one day after sowing; evaluated after 13 days
# Protocol: as §1, with “After” for “After 8 days”, “for one day (pre-emergence)” for “(post-emergence)”
SMILES,"Control of weed species after post-emergence application, AVEFA (damage score 0-5) [1]","Control of weed species after post-emergence application, SETFA (damage score 0-5) [2]","Control of weed species after post-emergence application, TRAZW (damage score 0-5) [3]","Control of weed species after post-emergence application, ECHCG (damage score 0-5) [4]","Control of weed species after post-emergence application, LOLPE (damage score 0-5) [5]","Control of weed species after post-emergence application, ALOMY (damage score 0-5) [6]","Control of weed species after pre-emergence application, AVEFA (damage score 0-5) [7]","Control of weed species after pre-emergence application, SETFA (damage score 0-5) [8]","Control of weed species after pre-emergence application, TRAZW (damage score 0-5) [9]","Control of weed species after pre-emergence application, ECHCG (damage score 0-5) [10]","Control of weed species after pre-emergence application, LOLPE (damage score 0-5) [11]","Control of weed species after pre-emergence application, ALOMY (damage score 0-5) [12]"
C=Cc1nc(-c2cncc(F)c2)cnc1N(C(=O)OC(C)(C)C)C(=O)OC(C)(C)C [Compound H20],2,5,1,4,3,0,2,4,1,2,1,0
CSc1nc(-c2cncc(F)c2)cnc1NC(=O)OC(C)(C)C [Compound H24],3,5,0,4,2,0,2,5,0,2,1,0
CC(C)(C)OC(=O)Nc1ncc(-c2cncc(F)c2)nc1C#N [Compound H10],1,5,0,2,1,0,0,4,0,2,0,0
C=C(C)c1nc(-c2cncc(F)c2)cnc1N(C(=O)OC(C)(C)C)C(=O)OC(C)(C)C [Compound H11],2,5,0,3,2,0,0,4,0,3,2,1
CC(C)(C)OC(=O)N(C(=O)OC(C)(C)C)c1ncc(-c2cncc(F)c2)nc1C1CC1 [Compound H12],2,5,0,3,2,0,0,4,0,1,0,0
CC(C)(C)OC(=O)N(C(=O)OC(C)(C)C)c1ncc(-c2cncnc2)nc1C(F)(F)F [Compound H1],4,5,0,5,3,0,2,4,0,4,1,0
CCc1nc(-c2cncc(F)c2)cnc1N(C(=O)OC(C)(C)C)C(=O)OC(C)(C)C [Compound H21],4,5,1,4,4,1,2,5,0,1,5,0
CC(C)(C)OC(=O)N(C(=O)OC(C)(C)C)c1ncc(-c2cncc(F)c2)nc1C#N [Compound H9],3,5,0,3,1,0,1,5,0,2,1,0
CC(C)(C)OC(=O)Nc1ncc(-c2cncc(F)c2)nc1C(F)(F)F [Compound H4],3,5,1,5,2,0,3,5,0,4,1,0
